Reference: the NIST ThermoML archive (doi:10.1016/j.fluid.2016.08.002)
Numbers after ± are expanded uncertainties.

Assay: xn = mol fraction of the nth substance listed
Conditions: Gas, Vibrating tube method

S [hydrogen sulfide] + C
Conditions	mass density [kg/m3]
273.32 K, 16120 kPa, x2 = 0.8685	204.24 ± 2
273.32 K, 16817 kPa, x2 = 0.8685	211.55 ± 2.1
273.33 K, 17352 kPa, x2 = 0.8685	216.85 ± 2.2
273.33 K, 21405 kPa, x2 = 0.8685	250.29 ± 1.3
273.34 K, 17978 kPa, x2 = 0.8685	222.75 ± 2.3
273.34 K, 18233 kPa, x2 = 0.8685	225.06 ± 2.3
273.35 K, 18773 kPa, x2 = 0.8685	229.81 ± 2.2
273.35 K, 19531 kPa, x2 = 0.8685	236.12 ± 2.1
273.36 K, 20692 kPa, x2 = 0.8685	245.12 ± 1.6
273.37 K, 20048 kPa, x2 = 0.8685	240.23 ± 1.8
273.37 K, 24085 kPa, x2 = 0.714	364.7 ± 1.6
293.18 K, 239 kPa, x2 = 0.8685	1.86 ± 0.36
293.18 K, 469 kPa, x2 = 0.8685	3.71 ± 0.38
293.18 K, 2890 kPa, x2 = 0.8685	25.81 ± 0.72
293.18 K, 8263 kPa, x2 = 0.8685	79.99 ± 1
293.18 K, 8722 kPa, x2 = 0.8685	85.68 ± 1
293.18 K, 9972 kPa, x2 = 0.8685	100.39 ± 1.1
293.18 K, 12003 kPa, x2 = 0.8685	124.94 ± 1.3
293.18 K, 12415 kPa, x2 = 0.8685	130.08 ± 1.4
293.18 K, 12830 kPa, x2 = 0.8685	135.13 ± 1.4
293.18 K, 13726 kPa, x2 = 0.8685	145.96 ± 1.5
293.19 K, 792 kPa, x2 = 0.8685	6.46 ± 0.44
293.19 K, 1341 kPa, x2 = 0.8685	11.22 ± 0.52
293.19 K, 2300 kPa, x2 = 0.8685	20.14 ± 0.64
293.19 K, 3396 kPa, x2 = 0.8685	30.35 ± 0.76
293.19 K, 3988 kPa, x2 = 0.8685	35.82 ± 0.82
293.19 K, 4428 kPa, x2 = 0.8685	40.25 ± 0.84
293.19 K, 6909 kPa, x2 = 0.8685	65.4 ± 0.95
293.19 K, 7335 kPa, x2 = 0.8685	70.05 ± 0.97
293.19 K, 7786 kPa, x2 = 0.8685	74.96 ± 0.99
293.19 K, 9097 kPa, x2 = 0.8685	90.09 ± 1.1
293.19 K, 9534 kPa, x2 = 0.8685	95.16 ± 1.1
293.19 K, 10368 kPa, x2 = 0.8685	105.2 ± 1.2
293.19 K, 10794 kPa, x2 = 0.8685	110.28 ± 1.2
293.19 K, 11183 kPa, x2 = 0.8685	115.06 ± 1.3
293.19 K, 11608 kPa, x2 = 0.8685	120.16 ± 1.3
293.19 K, 13230 kPa, x2 = 0.8685	140.02 ± 1.5
293.19 K, 16228 kPa, x2 = 0.8685	174.96 ± 1.8
293.19 K, 16699 kPa, x2 = 0.8685	180.07 ± 1.9
293.19 K, 17682 kPa, x2 = 0.8685	190.29 ± 2
293.2 K, 1820 kPa, x2 = 0.8685	15.41 ± 0.58
293.2 K, 4887 kPa, x2 = 0.8685	44.78 ± 0.88
293.2 K, 5494 kPa, x2 = 0.8685	50.99 ± 0.91
293.2 K, 5964 kPa, x2 = 0.8685	55.59 ± 0.93
293.2 K, 6411 kPa, x2 = 0.8685	60.21 ± 0.93
293.2 K, 14242 kPa, x2 = 0.8685	152.42 ± 1.6
293.2 K, 14579 kPa, x2 = 0.8685	156.48 ± 1.6
293.2 K, 14924 kPa, x2 = 0.8685	160.62 ± 1.7
293.2 K, 15365 kPa, x2 = 0.8685	165.51 ± 1.7
293.2 K, 15806 kPa, x2 = 0.8685	170.31 ± 1.8
293.2 K, 17183 kPa, x2 = 0.8685	185.14 ± 2
293.2 K, 18163 kPa, x2 = 0.8685	195.16 ± 2.1
293.2 K, 20932 kPa, x2 = 0.8685	220.42 ± 1
293.2 K, 21495 kPa, x2 = 0.8685	224.99 ± 0.95
293.2 K, 27629 kPa, x2 = 0.8685	265.96 ± 0.74
293.2 K, 28496 kPa, x2 = 0.8685	270.59 ± 0.73
293.21 K, 1117 kPa, x2 = 0.8685	9.2 ± 0.48
293.21 K, 23505 kPa, x2 = 0.8685	240.2 ± 0.85
293.21 K, 25865 kPa, x2 = 0.8685	255.77 ± 0.78
293.21 K, 26669 kPa, x2 = 0.8685	260.49 ± 0.75
293.21 K, 29415 kPa, x2 = 0.8685	275.27 ± 0.72
293.21 K, 29995 kPa, x2 = 0.8685	278.16 ± 0.73
293.21 K, 30419 kPa, x2 = 0.8685	280.17 ± 0.72
293.22 K, 20355 kPa, x2 = 0.8685	215.54 ± 1.3
293.22 K, 24254 kPa, x2 = 0.8685	245.19 ± 0.82
293.22 K, 25052 kPa, x2 = 0.8685	250.52 ± 0.8
